Experiment [1] is filed under the species Mus musculus. The experiment can be described thus: Effective dose for Antinociceptive activity was determined in mice using Tail -Flick Assay: The symbol > signifies that no effect was produced at that dose. The class given is functional.
The species entered for experiment [2] is Rattus norvegicus. As to the kind of experiment: Effective dose for Antinociceptive activity was determined in rat using drug discrimination assay: The symbol > signifies that no effect was produced at that dose. The class given is functional.
The target of experiment [3] is Neuronal nicotinic acetylcholine receptor. The experiment can be described thus: Binding affinity against Nicotinic acetylcholine receptor using [3H](-)-nicotine radioligand. The class given is protein-complex assay.
For experiment [4], the system named is Mus musculus. The experiment can be described thus: Effective dose for Antinociceptive activity expressed as Spontaneous activity was determined in mice antagonized by 1 mg/Kg of Mecamylamine: The symbol > signifies that no effect was produced at that dose. The class given is functional.
Experiment [5] concerns Mus musculus. As to the kind of experiment: Effective dose for Antinociceptive activity expressed as Spontaneous activity was determined in mice antagonized by 1 mg/Kg of Mecamylamine. The class given is functional.
For experiment [6], the species on record is Mus musculus. As to the kind of experiment: Effective dose for Antinociceptive activity was determined in mice using Tail -Flick Assay. It counts as functional.
The species entered for experiment [7] is Rattus norvegicus. The experiment can be described thus: Effective dose for Antinociceptive activity was determined in rat using drug discrimination assay. It counts as functional.
The subject of experiment [8] is Mus musculus. As to the kind of experiment: Compound was tested to antagonize the antinociceptive actions of 2.5 mg/kg of (-)nicotine as measured in the tail-flick assay in mice. It counts as functional. For orientation: In hot-plate and tail-flick tests a longer latency is read as antinociception.
Setting [9] is: Mus musculus, Tail, read-out: ED50.
The mark [10] stands for this setting: Rattus norvegicus, read-out: ED50.

This note sets out measurements from ChEMBL document CHEMBL1134921 (Bioorg Med Chem Lett, 2002).

The Ki is the equilibrium dissociation constant of an inhibitor or competing ligand from its target. A higher Ki goes with a looser hold on the target.

Take `CCCc1ccc(C2CCCN2C)cn1` (racemic): the ED50 in the experiment filed under Mus musculus [1] was above 70 µmol/kg; in the experiment listed under Rattus norvegicus [2], above 20 µM/kg. In experiment [3], the inhibition constant (Ki) amounted to 25 nM.
As to `CCCCCc1ccc(C2CCCN2C)cn1` (racemic), the ED50 in the experiment filed under Mus musculus [1] and with Mus musculus [4] was above 50 µmol/kg in each case. The Ki in experiment [3] was found to be 72 nM.
For `Cc1ccc(C2CCCN2C)cn1` (racemic), the ED50 is 1 µmol/kg in the experiment with Mus musculus [5] (Mus musculus, read-out: ED50); 3.5 µmol/kg in the experiment listed under Mus musculus [6] (setting [9]); 0.4 µmol/kg in the experiment listed under Rattus norvegicus [7] (setting [10]). Moreover, the Ki in experiment [3] came out at 1.8 nM.
In the case of `CN1CCC[C@H]1c1cccnc1` (racemic) [NICOTINE], the ED50 in the experiment with Mus musculus [5] (Mus musculus, read-out: ED50) worked out at 4.9 µmol/kg; in the experiment listed under Mus musculus [6] (setting [9]), 9.9 µmol/kg; in the experiment listed under Rattus norvegicus [7] (setting [10]), 0.6 µmol/kg.
In the case of `CCc1ccc(C2CCCN2C)cn1` (single isomer, unassigned; (-)), the ED50 with Mus musculus [5] (Mus musculus, read-out: ED50) is 1.4 µmol/kg; in the experiment listed under Mus musculus [6] (setting [9]), 2.1 µmol/kg; in the experiment listed under Rattus norvegicus [7] (setting [10]) it was 1.1 µmol/kg. The compound also came in with a Ki in experiment [3] of 5.6 nM.
Turning to `CCCc1ccc(C2CCCN2C)cn1` (single isomer, unassigned; (-)), the ED50 in the experiment listed under Rattus norvegicus [2] is above 50 µM/kg; with Mus musculus [4], above 35 µmol/kg. Affinity in experiment [3] was put at a Ki of 22 nM. The AD50 in the experiment on Mus musculus [8] worked out at 4.9 µM/kg.
In the case of `CCCCc1ccc(C2CCCN2C)cn1` (single isomer, unassigned; (-)), the ED50 in the experiment listed under Mus musculus [1] is above 50 µmol/kg. The same compound came in with a Ki in experiment [3] of 21 nM. In the experiment on Mus musculus [8], this compound showed an AD50 of 9.2 µM/kg.
Turning to `CN1CCC[C@H]1c1cccnc1` [NICOTINE], the ED50 in the experiment on Mus musculus [5] is 3.1 µM/kg; in the experiment listed under Mus musculus [6], 7.4 µM/kg; in the experiment filed under Rattus norvegicus [7] it was 0.6 µM/kg.
